Source: US7022716B2, “Cyclic amine phenyl beta-3 adrenergic receptor agonists” (Wyeth, priority 2000, dated 2006)

What follows are molecules tested against T1, human β3 adrenergic receptor (Homo sapiens, UniProt P13945) (assay: cAMP (SPA) response in CHO cells transfected with human β3 adrenergic receptor). Conditions: maximal response relative to maximal response of isoproterenol at 10^-5 M.
T1 construct: Full length β3 AR clones (402 amino acids) containing the last 6 amino acids of hβ3-AR are prepared; expressed in transfected cells; host or cells: CHO (Chinese hamster ovary) cells
Assay type: cell-based
Parameters: key: fraction of maximal isoproterenol (10^-5 M) response
Summary of the method: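 Reactions were stopped with 0.2N HCl and neutralised, and cAMP was measured by SPA. Activity is expressed as percent of the maximal 10^−5 M isoproterenol response.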

T1 sequence (P13945 whole entry): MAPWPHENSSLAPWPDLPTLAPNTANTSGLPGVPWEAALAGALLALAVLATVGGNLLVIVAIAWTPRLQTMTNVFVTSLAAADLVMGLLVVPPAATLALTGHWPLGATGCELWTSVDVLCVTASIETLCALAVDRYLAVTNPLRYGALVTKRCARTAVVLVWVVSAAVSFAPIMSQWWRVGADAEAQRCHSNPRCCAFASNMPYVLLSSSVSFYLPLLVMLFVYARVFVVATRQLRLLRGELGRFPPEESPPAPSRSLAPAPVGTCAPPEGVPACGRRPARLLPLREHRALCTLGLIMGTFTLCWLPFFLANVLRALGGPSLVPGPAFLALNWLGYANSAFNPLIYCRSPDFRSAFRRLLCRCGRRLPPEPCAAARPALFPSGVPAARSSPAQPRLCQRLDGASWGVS

Row | Molecule | IA(β3)
1 | COc1ccc(S(=O)(=O)Nc2ccc(N3CCC(NCC(O)c4cccc(O)c4)CC3)cc2)cc1OC (stereo not drawn) [Example 361, N-[4-(4-{[2-Hydroxy-2-(3-hydroxyphenyl)ethyl]amino}-1-piperidinyl)phenyl]-3,4-dimethoxybenzenesulfonamide] | 0.55
2 | 5-[4-(4-{[4-(2S)-2-(3-Bromoisoxazol-5-yl)-2-hydroxyethyl]amino}piperidine-1-yl)benzyl]-1,3-thiazolidine-2,4-dione [Example 122] | 0.46
3 | CC(=O)Nc1ccc(S(=O)(=O)Nc2ccc(N3CC(NC[C@H](O)COc4cccc5[nH]c6ccccc6c45)C3)cc2)cc1 [Example 417, N-(4-{[4-(3-{[(2S)-3-(9H-Carbazol-4-yloxy)-2-hydroxypropyl]amino}-1-azetidinyl)anilino]sulfonyl}phenyl)acetamide] | 0.71
4 | CCCCCCCCS(=O)(=O)Nc1ccc(N2CCC(NCC(O)c3ccc(O)c(NS(C)(=O)=O)c3)CC2)cc1 (stereo not drawn) [Example 297, N-(4-{4-[(2-Hydroxy-2-{4-hydroxy-3-[(methylsulfonyl)amino]phenyl}ethyl)amino]-1-piperidinyl}phenyl)-1-octanesulfonamide] | 1
5 | CCCCN(c1ccc(N2CCC(NC[C@H](O)c3ccc(O)c(NS(C)(=O)=O)c3)CC2)cc1)S(=O)(=O)CC(=O)OCc1ccccc1 [Example 324, Benzyl[(butyl-4-{4-[((2R)-2-hydroxy-2-{4-hydroxy-3-[(methylsulfonyl)amino]phenyl}-ethyl)amino]-1-piperidinyl)anilino)sulfonyl}acetate] | 0.9
6 | CCCCS(=O)(=O)Nc1ccc(N2CCC(NC[C@H](O)COc3ccc(O)c(NS(C)(=O)=O)c3)CC2)cc1 [Example 309, N-(4-{4-[((2S)-2-Hydroxy-3-{4-hydroxy-3-[(methylsulfonyl)amino]phenoxy}-propyl)amino]-1-piperidinyl}phenyl)-1-butanesulfonamide] | 1
7 | COc1ccc(OC)c(S(=O)(=O)Nc2ccc(N3CCC(NC[C@H](O)c4ccc(O)c(NS(C)(=O)=O)c4)CC3)cc2)c1 [Example 335, N-(4-{4-[((2R)-2-Hydroxy-2-{4-hydroxy-3-[(methylsulfonyl)amino]phenyl}ethyl)amino]-1-piperidinyl}phenyl)-2,5-dimethoxybenzenesulfonamide] | 0.98
8 | O=S(=O)(Nc1ccc(N2CCC(NC[C@H](O)COc3ccccc3)CC2)cc1)c1ccc(Oc2ncc(C(F)(F)F)cc2Cl)cc1 [Example 346, 4-{[3-Chloro-5-(trifluoromethyl)-2-pyridinyl]oxy}-N-[4-(4-{[(2S)-2-hydroxy-3-phenoxypropyl]amino}-1-piperidinyl)phenyl]benzenesulfonamide] | 0.76
9 | CCCCS(=O)(=O)N(CC(=O)OCC)c1ccc(N2CCC(NC[C@H](O)c3ccc(O)c(NS(C)(=O)=O)c3)CC2)cc1 [Example 345] | 1
10 | CCOC(=O)c1ccc(S(=O)(=O)Nc2ccc(N3CCC(NC[C@H](O)c4ccc(O)c(NS(C)(=O)=O)c4)CC3)cc2)cc1 [Example 318, Ethyl4-[(4-{4-[((2R)-2-hydroxy-2-{4-hydroxy-3-[(methylsulfonyl)amino]phenyl}ethyl)-amino]-1-piperidinyl}anilino)sulfonyl]benzoate] | 1
11 | CC(=O)Nc1ccc(N2CC(NC[C@H](O)COc3cccc4[nH]c5ccccc5c34)C2)cc1 [Example 415, N-[4-(3-{[(2S)-3-(9H-Carbazol-4-yloxy)-2-hydroxypropyl]amino}-1-azetidinyl)phenyl]acetamide] | 0.35
12 | CCCCCCCCS(=O)(=O)Nc1ccc(N2CCC(NC[C@H](O)COc3cccc4[nH]c(=O)[nH]c34)CC2)cc1 [Example 298, N-{4-[4-({(2S)-2-Hydroxy-3-[(2-oxo-2,3-dihydro-1H-benzimidazol-4-yl)oxy]propyl}amino)-1-piperidinyl]phenyl}-1-octanesulfonamide] | 0.78
13 | CC(=O)Nc1ccc(S(=O)(=O)Nc2ccc(N3CCC(NC[C@H](O)COc4ccc(O)c5c4CCC(=O)N5)CC3)cc2)cc1 [Example 307, N-[4-({4-[4-({(2S)-2-Hydroxy-3-[(8-hydroxy-2-oxo-1,2,3,4-tetrahydro-5-quinolin)oxy]propyl}amino)-1-piperidinyl]anilino}sulfonyl)phenyl]acetamide] | 1
14 | CCCCOc1ccc(S(=O)(=O)Nc2ccc(N3CC(NC[C@H](O)COc4ccc(O)cc4)C3)cc2)cc1 [Example 411, 4-Butoxy-N-[4-(3-{[(2S)-2-hydroxy-3-(4-hydroxyphenoxy)propyl]amino}-1-azetidinyl)phenyl]benzenesulfonamide] | 0.49
15 | COC(=O)COc1ccc(S(=O)(=O)Nc2ccc(N3CCC(NC[C@H](O)c4ccc(O)c(NS(C)(=O)=O)c4)CC3)cc2)cc1 [Example 313, Methyl{4-[(4-{4-[((2R)-2-hydroxy-2-{4-hydroxy-3-[(methylsulfonyl)amino]-phenyl}ethyl)amino]-1piperidinyl}anilino)sulfonyl]phenoxy}acetate] | 1
16 | COc1ccc(C(=O)Nc2ccc(N3CCC(NCC(O)c4ccc(O)c(NS(C)(=O)=O)c4)CC3)cc2)cc1OC (stereo not drawn) [Example 385, N-(4-{4-[(2-Hydroxy-2-{4-hydroxy-3-[(methylsulfonyl)amino]phenyl}ethyl)amino]-1-piperidinyl}phenyl)-3,4-dimethoxybenzamide] | 1.12
17 | CCCCS(=O)(=O)Nc1ccc(N2CCC(NC[C@H](O)COc3cccc4[nH]c(=O)[nH]c34)CC2)cc1 [Example 296, N-{4-[4-({(2S)-2-Hydroxy-3-[(2-oxo-2,3-dihydro-1H-benzimidazol-4-yl)oxy]propyl}amino)-1-piperidinyl]phenyl}-1-butanesulfonamide] | 0.81
18 | CS(=O)(=O)Nc1cc([C@@H](O)CNC2CCN(c3ccc(NS(=O)(=O)CC(=O)OCc4ccccc4)cc3)CC2)ccc1O [Example 322, Benzyl[(4-{4-[((2R)-2-hydroxy-2-{4-hydroxy-3-[(methylsulfonyl)amino]phenyl}-ethyl)amino]-1-piperidinyl}anilino)sulfonyl]acetate] | 0.89
19 | COC(=O)COc1ccc(S(=O)(=O)Nc2ccc(N3CCC(NC[C@H](O)c4ccc(Cl)c(NS(C)(=O)=O)c4)CC3)cc2)cc1 [Example 319, Methyl{4-[(4-{4-[((2R)-2-{4-chloro-3-[(methylsulfonyl)amino]phenyl}-2-hydroxyethyl)amino]-1-piperidinyl}anilino)sulfonyl]phenoxy}acetate] | 0.79
20 | O=c1[nH]c2cccc(OC[C@@H](O)CNC3CCN(c4ccc(NS(=O)(=O)c5ccc(C(F)(F)F)cc5)cc4)CC3)c2[nH]1 [Example 328] | 0.89
21 | O=c1[nH]c2cccc(OC[C@@H](O)CNC3CCN(c4ccc(NS(=O)(=O)c5cc(Cl)cc(Cl)c5)cc4)CC3)c2[nH]1 [Example 333, 3,5-Dichloro-N-{4-[4-({(2S)-2-hydroxy-3-[(2-oxo-2,3-dihydro-1H-benzimidazol-4-yl)oxy]propyl}amino)-1-piperidinyl]phenyl}benzenesulfonamide] | 0.83
22 | COc1ccc(S(=O)(=O)Nc2ccc(N3CCC(NC[C@H](O)c4cccc(Cl)c4)CC3)cc2)cc1 [Example 260, N-[4-(4-{[(2R)-2-(3-Chlorophenyl)-2-hydroxyethyl]amino}-1-piperidinyl)phenyl]-4-methoxybenzenesulfonamide] | 0.63
23 | CS(=O)(=O)Nc1cc([C@@H](O)CNC2CCN(c3ccc(NS(=O)(=O)c4cccnc4)cc3)CC2)ccc1O [Example 326, N-(4-{4-[((2R)-2-Hydroxy-2-{4-hydroxy-3-[(methylsulfonyl)amino]phenyl}ethyl)amino]-1-piperidinyl}phenyl)-3-pyridinesulfonamide] | 1.3
24 | CCCCCCCCS(=O)(=O)Nc1ccc(N2CCC(NC[C@H](O)COc3ccc(O)cc3)CC2)cc1 [Example 304, N-[4-(4-{[(2S)-2-Hydroxy-3-(4-hydroxyphenoxy)propyl]amino}-1-piperidinyl)phenyl]-1-octanesulfonamide] | 0.35
25 | CC(=O)Nc1ccc(S(=O)(=O)Nc2ccc(N3CC(NC[C@H](O)COc4ccc(O)cc4)C3)cc2)cc1 [Example 413, N-(4-{[4-(3-{[(2S)-2-Hydroxy-3-(4-hydroxyphenoxy)propyl]amino}-1-azetidinyl)anilino]-sulfonyl}phenyl)acetamide] | 0.73
26 | CC(=O)Nc1ccc(S(=O)(=O)Nc2ccc(N3CCC(NC[C@H](O)COc4cccc5[nH]c(=O)[nH]c45)CC3)cc2)cc1 [Example 274] | 1.15
27 | O=C(NCc1ccc(S(=O)(=O)Nc2ccc(N3CCC(NCC(O)c4cccc(O)c4)CC3)cc2)s1)c1ccccc1 (stereo not drawn) [Example 349, N-[(5-{[4-(4-{[2-Hydroxy-2-(3-hydroxyphenyl)ethyl]amino}-1-piperidinyl)-anilino]sulfonyl}-2-thienyl)methyl]benzamide] | 1.26
28 | COc1ccc(S(=O)(=O)Nc2ccc(N3CCC(NC[C@H](O)COc4ccccc4)CC3)cc2)cc1OC [Example 360, N-[4-(4-{[(2S)-2-Hydroxy-3-phenoxypropyl]amino}-1-piperidinyl)phenyl]-3,4-dimethoxybenzenesulfonamide] | 0.54
29 | CS(=O)(=O)Nc1cc(C(O)CNC2CCN(c3ccc(NS(=O)(=O)c4ccc(CC5SC(=O)NC5=O)cc4)cc3)CC2)ccc1O (stereo not drawn) [Example 302, 4-[(2,4-Dioxo-1,3-thiazolidin-5-yl)methyl]-N-(4-{4-[(2-hydroxy-2-{4-hydroxy-3-[(methylsulfonyl)amino]phenyl}ethyl)amino]-1-piperidinyl}phenyl)benzenesulfonamide] | 0.95
30 | COc1ccc(S(=O)(=O)Nc2ccc(N3CCC(NC[C@H](O)c4ccccc4)CC3)cc2)cc1 [Example 261, N-[4-(4-{[(2R)-2-Hydroxy-2-phenylethyl]amino}-1-piperidinyl)phenyl]-4-methoxybenzenesulfonamide] | 0.73
